Where two headings read alike, the source gives them in different places.
Columns and labels:
[1] = tested on: Human pleural mesothelioma cells NCI-H226; assay: Proliferation inhibition assay of human pleural mesothelioma cells NCI-H226 (CCK8); format: cell-based; conditions: 72 h, 3 days incubation
Excerpt: Experimental Example 1 Cell Anti-Proliferation Test
Proliferation Inhibition Assay of Human Pleural Mesothelioma Cells NCI-H226 by YAP-TEAD Inhibitor Compounds
Experimental materials and equipment: Human pleural mesothelioma cells NCI-H226 were purchased from Nanjing Cobioer Biosciences CO., LTD. RPMI-1640 medium (Bio-Channel), DMSO (dimethyl sulfoxide), CCK8 (WST-8) cell analysis kit (Beyotime), 0.25% EDTA-Tripsin (trypsin solution), 1×PBS (phosphate buffer, PH7.2), 96-well plate (Corning), fetal bovine serum (FBS), 10,000 U/mL penicillin-G/streptomycin, high-speed cryo-centrifuge (EPPENDORF 5810R), enzyme-linked immunoassay (Tecan Spark).
• A) Tumor cells were cultured in RPMI-1640 (containing 10% FBS and 100 U/mL penicillin-G/streptomycin) at 37° C., 5% CO^2 and saturated humidity until 80-90% density. • B) Removed the culture medium from 10 cm Petri dishes; • C) Rinsed the cells once with 10 ml 1×PBS; • D) Added 4 ml 0.25% EDTA-Tripsin into 37° C., 5% CO^2 incubator for trypsin digestion for 5 minutes, transferred to 15 ml centrifuge tube, centrifuged at 200 g for 5 minutes, discarded the supernatant to get cell precipitate; • E) Resuspend with 4 ml DMEM medium, count and adjust to 10,000 cells/ml. • F) Added cell suspension to 96-well plate with 100 μL per well volume and incubate overnight at 37° C., 5% CO^2 incubator.
• A) Preparation of gradient dilution solution of tested compounds: the test compounds were configured into 1 mM reservoir solution. Then 1.5 μl of the reservoir solution was dissolved in 1.5 ml of DMSO-free culture solution, and then a 3-fold serial gradient dilution was performed with 0.1% DMSO culture solution for a total of 9 concentrations, and the concentrations of the compounds after dilution were as follows: • 333.33 nM, 111.11 nM, 37.03 nM, 12.35 nM, 4.15 nM, 1.37 nM, 0.46 nM, 0.15 nM • B) After thorough mixing, 100 μL of culture compound solution was taken separately to replace the culture solution in the cell culture plate, with 4 replicate wells for each concentration; • C) The cells were transferred to the incubator and incubated for 3 days.
• A) Removed the cell culture plate and added 10 μl of CCK-8 (WST-8) solution per well in the biosafety cabinet. • B) Placed the cell culture plate back into the incubator and continued incubation for 3 hours. • C) Determined the absorbance value by selecting 450 nm on a TECAN enzyme-linked immunoassay detector.
The cell viability (% Cell Viability) was calculated using the following formula.
[formula] • A (dosing): absorbance of wells with cells, CCK8 solution and drug solution • A (blank): absorbance of wells with medium and CCK8 solution but no cells • A (0 dosing): absorbance of wells with cells, CCK8 solution and no drug solution • Cell viability: Cell proliferation viability or cytotoxicity viability IC50 values were obtained by curve fitting with GraphPad Prism 8 software.

YAP-TEAD = assay: Nano luciferase method to detect YAP-TEAD inhibitor activity (293T cells transfected with pGL3B-8×GTiiC-nLuc-CMV-fLuc); format: cell-based; conditions: Homo sapiens, HEK-293T, transfected 293T cells, 48 hours incubation, read-out: Nano Luciferas detection (IC50)
Excerpt: Experimental Example 2 Nano Luciferase Method to Detect YAP-TEAD Inhibitor Activity
(1) Experimental materials and equipment: 293T cells were purchased from Nanjing Cobioer Biosciences CO., LTD. DMEM medium (high sugar, phenol red free, Bio-Channel), DMSO (dimethyl sulfoxide), Lipo6000™ transfection reagent (Beyotime), pGL3B-8×GTiiC-nLuc-CMV-fLuc plasmid, 0.25% EDTA Tripsin (trypsin solution), 1×PBS (phosphate buffer, PH7.2), 96-well white cell culture plate (PerkinElmer), Fetal Bovine Serum (FBS), 10,000 U/mL penicillin-G/streptomycin, High-speed cryo-centrifuge (EPPENDORF 5810R), 37° C. CO^2 incubator, Vi-Cell® cell counter, Envision microplate reader (PerkinElmer).
Resuscitated 293T cells were inoculated into 10 cm petri dishes and placed in a 5% CO^2 incubator at a constant temperature of 37° C. To ensure transfection efficiency, cells in the logarithmic phase (cell density of about 50%-70%) should be used.
One day before transfection, cells in logarithmic phase were digested with Trypsin-EDTA, the reaction was terminated by adding medium, and the cell suspension was made by blowing and mixing with a pipette.
The cell concentration was determined using Vi-cell and diluted to a suspension of 5*10^5 cells per milliliter. Once the cell suspension was prepared, it was gently mixed and 10 ml of liquid was added to a 10 cm petri dish. […] The cells were incubated in a 5% CO^2 incubator at 37° C. for 1 day.
Take two clean and sterile centrifuge tubes, added 750 μL of opti-MEM Medium without antibiotics and serum respectively, then added […] of plasmid (pGL3B-8×GTiiC-nLuc-CMV-fLuc) to one of the tubes and gently blown with a pipette for mixing; the other tube was added with Lipo6000 transfection reagent and gently blown with a pipette for mixing. After standing at room temperature for 5 minutes, the culture medium containing DNA was gently added to the culture medium containing Lipo6000 transfection reagent, mixed by gently inverting the centrifuge tube, and stood at room temperature for 5 minutes.
The above mixture was added evenly dropwise to a 10-cm petri dish and replaced with fresh complete medium after 6 h of incubation.
After 1 day of transfection, Trypsin EDTA was used to digest the cells, medium was added to terminate the reaction, and a cell suspension was made by blowing and mixing with a pipette.
Cell concentration was determined using Vi-cell, and diluted to a suspension of 20,000 cells per milliliter.
After the cell suspension was prepared, it was gently mixed and 100 μL was added to each well in a 96-well plate so that the density of cells to be measured was 2000 per well.
The inoculated cell culture plates were incubated in an incubator, and the compounds in concentration gradients were added after about 24 hours.
The 10 mM compound reservoir solution was diluted to 50 μM with culture medium, and 50 μM compound solution was added sequentially to the third column of the deep-well plate, and 216 μL of culture medium containing 0.5% DMSO to the fourth to eleventh columns.
Gradient dilution: 100 μL of solution was pipetted from the third column and added to the fourth column, after mixing; another 100 μL of solution was pipetted from the fourth column and added to the fifth column, and the operation was repeated until the eleventh column.
Using a multichannel pipette, 25 μL of compound solution was pipetted from the deep-well plate and added to the 96-well culture plate, and each compound was repeated four times on the 96-well plate. A concentration gradient with a maximum concentration of 10,000 nM, 1:3.16, was eventually formed on the 96-well plate.
The 96-well plate was incubated in a 5% CO^2 incubator at a constant temperature of 37° C. for 48 hours, then removed and equilibrated at room temperature for 10 minutes.
100 μL of detection reagent was added to each well and placed on a horizontal shaker at low speed for 10 minutes to fully lyse the cells. […]

[2] = reference compounds of WO2009081259A1

Row | IC50 [1] [nM] | IC50 (YAP-TEAD) [nM] | IC50 [1, 2] [nM] | IC50 (YAP-TEAD; [2]) [nM] | SMILES
1 | ≤ 100 | ≤ 100 | – | – | C=CC(=O)N1CC2(C1)CN(c1nccnc1Nc1ccc(C(F)(F)F)cc1)C2 [Compound T57]
2 | – | – | > 5000 | > 5000 | FC(F)(F)c1ccc(Nc2ncc(C(F)(F)F)cc2C2CCNCC2)cc1 [Reference compound 5, reference compound]
3 | 1000 to 5000 | 100 to 1000 | – | – | CC/C=C/C(=O)N1CCC(c2cccnc2Nc2ccc(C(F)(F)F)cc2)CC1 [Compound T52]
4 | 100 to 1000 | 100 to 1000 | – | – | C=CC(=O)N1CCC(c2cc(C(F)(F)F)cnc2Nc2ccc(C(F)(F)F)cc2)CC1 [Compound T47]
5 | ≤ 100 | ≤ 100 | – | – | C=CC(=O)N1CCC(c2cccnc2Oc2ccc(C(F)(F)F)cc2)C(F)(F)C1 (stereo not drawn) [Compound T77]
6 | – | – | > 5000 | > 5000 | FC(F)(F)c1ccc(Nc2ncc(Cl)cc2C2CCNCC2)cc1 [Reference compound 4, reference compound]
7 | 100 to 1000 | 100 to 1000 | – | – | C=CC(=O)N1CCC(c2cc(C#N)cnc2Oc2ccc(C(F)(F)F)cc2)CC1 [Compound T74]
8 | 100 to 1000 | 100 to 1000 | – | – | C=CC(=O)N1CCC(c2cc3ccccc3nc2Nc2ccc(C(F)(F)F)cc2)CC1 [Compound T65]
9 | ≤ 100 | ≤ 100 | – | – | C=CC(=O)N1CCC(c2cccnc2Nc2ccc(S(F)(F)(F)(F)F)cc2)CC1 [Compound T6]
10 | 1000 to 5000 | 100 to 1000 | – | – | C/C=C/C(=O)N1CCC(c2cccnc2Nc2ccc(C(F)(F)F)cc2)CC1 [Compound T53]
11 | 100 to 1000 | 100 to 1000 | – | – | C=CC(=O)N1CCC(c2c(OC)ccnc2Nc2ccc(C(F)(F)F)cc2)CC1 [Compound T35]
12 | ≤ 100 | ≤ 100 | – | – | C=CC(=O)N1CCC(c2ccc(F)nc2Nc2ccc(C(F)(F)F)cc2)CC1 [Compound T24]
13 | 1000 to 5000 | 1000 to 5000 | – | – | C=C(C)C(=O)N1CCC(c2cccnc2Nc2ccc(C(F)(F)F)cc2)CC1 [Compound T48]
14 | ≤ 100 | ≤ 100 | – | – | C=CC(=O)N1CCC(c2cccnc2Nc2ccc(S(F)(F)(F)(F)F)cc2)C1 (stereo not drawn) [Compound T8]
15 | 1000 to 5000 | 100 to 1000 | – | – | C=CC(=O)N1CCC(c2cc(-c3ccccn3)cnc2Nc2ccc(C(F)(F)F)cc2)CC1 [Compound T95]
16 | ≤ 100 | ≤ 100 | – | – | C=CC(=O)N1CC(c2cccnc2Nc2ccc(C)cc2)C1 [Compound T15]
17 | 1000 to 5000 | 100 to 1000 | – | – | C=CC(=O)N1CCC(c2cc(-c3cccs3)cnc2Nc2ccc(C(F)(F)F)cc2)CC1 [Compound T99]
18 | 1000 to 5000 | 100 to 1000 | – | – | C=CC(=O)N1CCC(c2cc(-c3ccncc3)cnc2Nc2ccc(C(F)(F)F)cc2)CC1 [Compound T97]

Row | IC50 [1] [nM] | IC50 (YAP-TEAD) [nM] | IC50 [1, 2] [nM] | IC50 (YAP-TEAD; [2]) [nM] | SMILES
19 | 100 to 1000 | 100 to 1000 | – | – | C=C(F)C(=O)N1CCC(c2cccnc2Nc2ccc(C(F)(F)F)cc2)CC1 [Compound T51]
20 | 100 to 1000 | 100 to 1000 | – | – | C=CC(=O)N1CCC(c2cncnc2Nc2ccc(C(F)(F)F)cc2)CC1 [Compound T43]
21 | ≤ 100 | ≤ 100 | – | – | C=CC(=O)N1CCC(c2cccnc2Nc2ccc(C)cc2)C1 (stereo not drawn) [Compound T13]
22 | – | – | > 5000 | > 5000 | Cc1ccc(C2CCNCC2)c(Nc2ccc(C(F)(F)F)cc2)n1 [Reference compound 2, reference compound]
23 | ≤ 100 | ≤ 100 | – | – | C=CC(=O)N1CCC(c2nccnc2Nc2ccc(C(F)(F)F)cc2)C1 (stereo not drawn) [Compound T18]
24 | 100 to 1000 | ≤ 100 | – | – | C=CC(=O)N1CCC(c2cc(-c3ccn(C)n3)cnc2Nc2ccc(C(F)(F)F)cc2)CC1 [Compound T54]
25 | ≤ 100 | ≤ 100 | – | – | C=CC(=O)N1CC=C(c2nccnc2Nc2ccc(C(F)(F)F)cc2)C1 [Compound T19]
26 | – | – | > 5000 | > 5000 | FC(F)(F)c1ccc(Oc2ncc(Cl)cc2C2CCNCC2)cc1 [Reference compound 7, reference compound]
27 | 100 to 1000 | 100 to 1000 | – | – | C=CC(=O)N1CCC(c2cc(-c3cn[nH]c3)cnc2Nc2ccc(C(F)(F)F)cc2)CC1 [Compound T55]
28 | ≤ 100 | ≤ 100 | – | – | C=CC(=O)N1CCC(c2ccccc2Nc2ccc(C(F)(F)F)cc2)CC1 [Compound T64]
29 | 100 to 1000 | 100 to 1000 | – | – | C=CC(=O)N1CCC(c2nc(C)c(C)nc2Nc2ccc(C(F)(F)F)cc2)CC1 [Compound T93]
30 | 100 to 1000 | ≤ 100 | – | – | C=CC(=O)N1CCC(c2ccc(OC)nc2Nc2ccc(C(F)(F)F)cc2)CC1 [Compound T33]
31 | – | – | > 5000 | > 5000 | FC(F)(F)c1ccc(Nc2ncccc2C2CCNCC2)cc1 [Reference compound 3, reference compound]
32 | ≤ 100 | ≤ 100 | – | – | C=CC(=O)N1CC=C(c2cccnc2Nc2ccc(C)cc2)C1 [Compound T14]
33 | ≤ 100 | ≤ 100 | – | – | C=CC(=O)N1CC=C(c2cccnc2Nc2ccc(S(F)(F)(F)(F)F)cc2)CC1 [Compound T7]
34 | 100 to 1000 | ≤ 100 | – | – | C=CC(=O)N1CCC(c2cc(-c3cn(C)cn3)cnc2Nc2ccc(C(F)(F)F)cc2)CC1 [Compound T62]
35 | – | – | > 5000 | > 5000 | Cc1cnc(Nc2ccc(C(F)(F)F)cc2)c(C2CCNCC2)c1 [Reference compound 1, reference compound]
36 | ≤ 100 | ≤ 100 | – | – | C=CC(=O)N1C(C)CC(c2cccnc2Oc2ccc(C(F)(F)F)cc2)CC1C (stereo not drawn) [Compound T80]
